Laboratory results published in article PMC9092348, “Cytotoxicity of Alizarine versus Tetrabromocathecol Cyclometalated Pt(II) Theranostic Agents: A Combined Experimental and Computational Investigation” (Inorganic Chemistry, 2022).
Like-named read-outs stand apart in the source and are kept apart here. Marks after values point to notes of the source that are not given here.

Columns and labels:
MDA-MB-231 cell line = assay: Intracellular Pt(II) content by ICP-MS; format: cell-based, human; conditions: 6 h, Figure 6A
Protocol: First, 200,000 cells/well were seeded in complete medium in a 12-well tray. […] These concentrations correspond to IC50 and IC50/2 of each compound according to our previous work aimed at analyzing the cytotoxic performance of these Pt(II) complexes in the MDA.MB.231 cell line.[13] […] An equal percentage of DMSO was added to control samples. Cells were thus washed two times with cold PBS and lysed with 200 μL of a homemade lysis buffer (Tris 50 mM pH 7, NaCl 150 mM, NP40 1% v/v, protease, and phosphatase inhibitors 1% v/v) for 30 min at 4 °C. The intracellular Pt(II) amount was quantified through ICP-MS (BRUKER aurora M90 ICP-MS, MA, USA), and data were normalized to the total protein content evaluated via bicinchoninic acid assay.
(A and C) Cells were seeded in complete medium (400,000 cells/well); the day after old media were discarded and cells were incubated for 6 h with media-containing compounds at the indicated concentrations, then intracellular protein were extracted, and intracellular ^195Pt was evaluated as ng ^195Pt over protein concentration (A) and further normalized vs the compounds’ working concentrations provided (C). Cisplatin was used as the positive control. An equal amount of DMSO was supplied in each experimental condition. Data are presented as mean ± SD of three different experiments; when invisible, the error bar is included into the bar line. […]

[1] = system: DNA of MDA-MB-231 cell line; assay: DNA-bound Pt(II) by ICP-MS; format: cell-based, human
Protocol: First, 200,000 cells/well were seeded in the complete medium in a 12-well tray. The day after, the old media were discarded, and the cells were challenged with compound-containing media for 6 h (CisPt: 30 and 60 μM; 1: 25 and 50 μM; 2: 1 and 2 μM; 3: 50 and 100 μM). An equal percentage of DMSO was added to control samples. The cells were thus washed two times with cold phosphate buffered saline (PBS) and digested with 700 μL of a homemade digest buffer (Tris 50 mM pH 8, NaCl 100 mM, EDTA 100 mM, and SDS 1%). The suspensions were moved to vials, and 400 μL of NaCl-saturated solution was added to them. The suspensions were thus vortexed and centrifuged at 12,000 rpm for 5 min. The supernatants were retrieved, added with 500 μL of 2-propanol, vortexed, and centrifuged at 12,000 rpm for 15 min to let DNA precipitate. […] DNA-bound Pt(II) was quantified through inductively coupled plasma-mass spectrometry (ICP-MS), and data were normalized to DNA content quantified with NanoDrop Site.
(A and C) Cells were seeded in complete medium (400,000 cells/well); the day after old media were discarded and cells were incubated for 6 h with media-containing compounds at the indicated concentrations, then intracellular protein were extracted, and intracellular ^195Pt was evaluated as ng ^195Pt over protein concentration (A) and further normalized vs the compounds’ working concentrations provided (C). […]

Calf Thymus DNA (CT-DNA) = assay: DNA binding experiment: UV–vis absorption with CT-DNA; conditions: complex 50 μM, PBS pH 7.4, increasing CT-DNA
Protocol: In a quartz cuvette (path length 1 cm), the UV–vis spectra were recorded of a PBS buffer solution (pH 7.4)-containing complex (1, 2, or 3, 50 μM, 0.5% DMF). The UV–vis absorption spectra were successively recorded following each addition of aliquots of Calf Thymus DNA (CT-DNA, 50 μM) after an equilibration time of 1 h.[32],[33]

[2] = Experimental measurement of LogPow by RP-HPLC; format: physicochemical; conditions: for logPow^exp: RP-HPLC, water/methanol 80/20, 25 °C; for logPow (approximate): theoretical and experimental values in agreement
Protocol: Reverse phase high performance liquid chromatography (RP-HPLC) analysis was performed to correlate the hydrophobicity of the complexes with their retention time.

[3] = Stability in solution followed by absorption spectra over time; format: physicochemical; conditions: for fate in aqueous environment (aquation): DMSO/buffer 0.5% v/v pH 7.4, within 24 h, spectra supported by TD-DFT; for solubility in aqueous medium: inferred from reduction of optical density over time
Protocol: Spectrofluorimetric-grade solvents were used for the photophysical investigations. The buffer solution (pH 7.4) was prepared by dissolving one phosphate buffer saline table in 200 mL of water. Compounds 1–3 were dissolved in DMSO and then diluted to reach a final concentration of 1 × 10^–5 M in DMSO as well as DMSO/buffer 0.5% v/v. A PerkinElmer Lambda 900 spectrophotometer was employed to obtain the UV–visible absorption spectra, using 10 mm path-length quartz cuvettes.
The photophysical properties of 1–3 in DMSO have been previously discussed.[13],[35] In order to investigate the tendency of the Pt(II) complexes to undergo hydrolysis reactions giving the corresponding aqua-complexes, their stability in aqueous solution was monitored spectrophotometrically, acquiring the absorption profiles over time (t = 0, 3, 6, and 24 h). In particular, absorption spectra were registered by dissolving 1–3 in DMSO then diluted in buffer solution (DMSO 0.5% v/v). Moreover, in order to follow a possible aquation reaction with a slower kinetics, absorption spectra were recorded dissolving 1–3 in DMSO containing a low water content, by using a nonanhydrous spectroscopic-grade solvent.

[4] = system: human triple-negative breast cancer cell line MDA-MB-231; design: method as in doi:10.1002/aoc.5455; conditions: cited from earlier work
[5] = design: method as in PMID 21450275; conditions: cited from earlier work

chromatographic logP [2] | Compound | intracellular protein-bound Pt compared to the highest cisplatin dose (MDA-MB-231 cell line; highest tested concentration) [fold] | increase in DNA-bound ^195Pt compared to cisplatin 60 μM ([1]; highest tested concentration, 6 h, Figure 6B) [fold] | UV–vis spectral change on addition of CT-DNA (Calf Thymus DNA (CT-DNA)) | logPow^exp [2] | logPow (approximate) [2] | fate in aqueous environment (aquation) [3] | solubility in aqueous medium [3] | IC50 [4] [µM] | cytosolic localization (intracellular Pt) (MDA-MB-231 cell line; compared to cisplatin and the other compounds) | accumulation of platinum in the DNA, corrected for working concentration ([1]; 2 μM 1 compared to cisplatin 60 and 150 μM 2, 6 h, Figure 6D) [fold] | logPow^exp [5]
 | Brc1c(Br)c(Br)c2c(c1Br)[O][Pt-]([c]1ccccc1-c1ccccn1)[O]2.CCCC[N+](CCCC)(CCCC)CCCC [Complex 2, NBu4[(PhPy)Pt(BrCat)]] | 3 | 1.6 | decrease of the band at 545 nm | 4.53 | ~4.5 | converted to the corresponding mono-aquo complexes | poor solubility | 52.8 ± 3.9 |  |  | 
 | CCCC[N+](CCCC)(CCCC)CCCC.O=C1c2ccccc2C(=O)c2c1ccc1c2[O][Pt-]([c]2ccccc2-c2ccccn2)[O]1 (stereo not shown) [Complex 1, NBu4[(PhPy)Pt(Aliz)]] |  |  | decrease of the band at 545 nm | 3.33 | around 3 | complete detachment of the (O^O) ligand |  | 1.9 ± 1.6 | barely localizes into cytosol | 10 | 
1.87 | O=C1c2ccccc2C(=O)c2c1ccc(O)c2O [alizarine] |  |  |  |  |  |  |  |  |  |  | 
 | N.N.O=C1c2ccccc2C(=O)c2c1ccc1c2[O][Pt][O]1 [Complex 3, [(NH3)2Pt(Aliz)]] |  |  | decrease of the band at 545 nm | 0.47 |  | converted to the corresponding mono-aquo complexes | poor solubility | 127 ± 2.7 |  |  | 
 | N.N.O=C([O-])C1(C(=O)[O-])CCC1.[Pt+2] [carboplatin] |  |  |  |  |  |  |  |  |  |  | -2.30 ^a
